How the values were obtained:
[1] = system: IgE; assay: Determination of Igs produced in in vitro culture: inhibition of IgE secreted by spleen cells (adoptive secondary immune response to DNP-As), ELISA; type: cell-based, BALB/c mice; settings: 4 days culture; for inhibition at 0.25 µg/mL: 0.25 μg/ml; for inhibition at 5 µg/mL: 5.0 μg/ml; for inhibition at 40 µg/mL: 40.0 μg/ml
Procedure, shortened: (§1)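 Donor BALB/c mice primed i.p. with 5 μg DNP-As on alum; 5×10^7 spleen cells transferred i.v. into 600-rad-irradiated recipients, boosted likewise. After 4 weeks, recipient spleen cells (5×10^6 cells/ml) cultured ± compound 4 days at 37° C; secreted IgG/IgE quantified by ELISA, % inhibition vs untreated culture.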

[2] = system: IgG; assay: Determination of Igs produced in in vitro culture: inhibition of IgG secreted by spleen cells (adoptive secondary immune response to DNP-As), ELISA; type: cell-based, BALB/c mice; settings: 4 days culture; for inhibition at 0.25 µg/mL: 0.25 μg/ml; for inhibition at 5 µg/mL: 5.0 μg/ml; for inhibition at 40 µg/mL: 40.0 μg/ml
Procedure, shortened: as §1

CSc1c(C#N)c(=O)n2ccccc2c1C(=O)OCCCC1CCCCC1 [S-3, 3'-Cyclohexylpropyl 3-cyano-2-methylthio-4H-quinolizin-4-one-1-carboxylate]
inhibition at 1 µg/mL ([1]; Mus musculus, 96 h, 1.0 μg/ml): 79%
inhibition at 1 µg/mL ([2]; Mus musculus, 96 h, 1.0 μg/ml): 35%

COc1ccccc1COC(=O)c1c(SC)c(C#N)c(=O)n2ccccc12 [S-37, 2'-Methoxybenzyl 3-cyano-2-methylthio-4H-quinolizin-4-one-1-carboxylate]
inhibition at 0.25 µg/mL ([1]; Mus musculus, 96 h): 36%
inhibition at 0.25 µg/mL ([2]; Mus musculus, 96 h): 11%

CSc1c(C#N)c(=O)n2ccccc2c1C(=O)OC1CCCC1 [S-12, Cyclopentyl 3-cyano-2-methylthio-4H-quinolizin-4-one-1-carboxylate]
inhibition at 5 µg/mL ([1]; Mus musculus, 96 h): 65%
inhibition at 5 µg/mL ([2]; Mus musculus, 96 h): 32%

CSc1c(C#N)c(=O)n2cccc(C)c2c1C(=O)N1CCC(c2ccccc2)CC1 (single isomer, unassigned) [S-81B, 3-Cyano-9-methyl-2methylthio-1-(4-phenylpiperidinocarbonyl)-4H-quinolizin-4-one]
Inhibition % of IgE ([1]; 1.0 μg/ml): 50%
Inhibition % of IgG ([2]; 1.0 μg/ml): 4%

CSc1c(C#N)c(=O)n2ccccc2c1C(=O)OCc1ccc2c(c1)OCO2 [S-26, Piperonyl 3-cyano-2-methylthio-4H-quinolizin-4-one-1-carboxylate]
inhibition at 40 µg/mL ([1]; Mus musculus, 96 h): 48%
inhibition at 40 µg/mL ([2]; Mus musculus, 96 h): 17%

CSc1c(C#N)c(=O)n2ccccc2c1C(=O)OC1C2CC3CC(C2)CC1C3 (stereo not shown) [S-21, 2'-Adamantyl 3-cyano-2-methylthio-4H-quinolizin-4-one-1-carboxylate]
inhibition at 5 µg/mL ([1]; Mus musculus, 96 h): 70%
inhibition at 5 µg/mL ([2]; Mus musculus, 96 h): 47%

CSc1c(C#N)c(=O)n2ccccc2c1C(=O)OCCOc1ccc(Cl)cc1 [S-53, 2'-(4-Chorophenoxy)ethyl 3-cyano-2-methylthio-4H-quinolizin-4-one-1-carboxylate]
inhibition at 0.25 µg/mL ([1]; Mus musculus, 96 h): 69%
inhibition at 0.25 µg/mL ([2]; Mus musculus, 96 h): 49%

CSc1c(C#N)c(=O)n2ccccc2c1C(=O)Cc1ccc(C)cc1C [S-100, 3-Cyano-1-(2,4dimethylphenylacetyl)-2-methylthio-4H-quinolizin-4-one]
inhibition at 2.5 µg/mL ([1]; Mus musculus, 96 h, 2.5 μg/ml): 63%
inhibition at 2.5 µg/mL ([2]; Mus musculus, 96 h, 2.5 μg/ml): 34%

CSc1c(C#N)c(=O)n2ccccc2c1C(=O)N(C)Cc1ccccc1 [S-66, N-Benzyl-3-cyano-N-methyl-2-methylthio-4H-quinolizin-4-one-1-carboxamide]
inhibition at 40 µg/mL ([1]; Mus musculus, 96 h): 64%
inhibition at 40 µg/mL ([2]; Mus musculus, 96 h): 35%

CSc1c(C#N)c(=O)n2ccc(C)cc2c1C(=O)CCCCc1ccccc1 [S-108, 3-Cyano-8-methyl-2-methylthio-1-(5-phenylvaleryl)-4H-quinolizin-4-one]
inhibition at 1 µg/mL ([1]; Mus musculus, 96 h, 1.0 μg/ml): 60%
inhibition at 1 µg/mL ([2]; Mus musculus, 96 h, 1.0 μg/ml): 35%

CSc1c(C#N)c(=O)n2ccccc2c1C(=O)OC1CCCCCCC1 [S-20, Cyclooctyl 3-cyano-2-methylthio-4H-quinolizin-4-one-1-carboxylate]
inhibition at 5 µg/mL ([1]; Mus musculus, 96 h): 84%
inhibition at 5 µg/mL ([2]; Mus musculus, 96 h): 52%

CSc1c(C#N)c(=O)n2ccccc2c1C(=O)OCc1ccc(Br)cc1 [S-23, 4'-Bromobenzyl 3-cyano-2-methylthio-4H-quinolizin-4-one-1-carboxylate]
inhibition at 1 µg/mL ([1]; Mus musculus, 96 h, 1.0 μg/ml): 79%
inhibition at 1 µg/mL ([2]; Mus musculus, 96 h, 1.0 μg/ml): 34%

CSc1c(C#N)c(=O)n2ccccc2c1C(=O)NCc1ccccc1 [S-73, N-Benzyl-3-cyano-2-methylthio-4H-qunolizin-4-one-1-carboxamide]
inhibition at 40 µg/mL ([1]; Mus musculus, 96 h): 55%
inhibition at 40 µg/mL ([2]; Mus musculus, 96 h): 24%

CSc1c(C#N)c(=O)n2ccccc2c1C(=O)N1CCc2ccccc2C1 [S-87, 3-Cyano-2-methylthio-1-(1,2,3,4-tetrahydroisoquinolin-2-ylcarbonyl)-4H-quinolizin-4-one]
inhibition at 5 µg/mL ([1]; Mus musculus, 96 h): 61%
inhibition at 5 µg/mL ([2]; Mus musculus, 96 h): 36%
